Experimental data: patent publication US9078845B2, “Anti-microbial agent” (priority 2005, dated 2015)

Tests used:
Pseudomonas aeruginosa = experiment: suspension test; type: cell-based; conditions: after 30 mins
Description: The compositions were tested for antimicrobial activity using the suspension test in Example 3 outlined at room temperature against the following organisms:
The anti-microbial activity of a-linolenic acid and terpinen-4-ol separately and in combination were tested using the suspension test as outlined in Example 3 above.

[1] = system: Salmonella cholerae-suis ATCC 10708; experiment: Minimum Inhibitory Concentration Test (broth dilution, turbidity); type: cell-based; conditions: 48 hours at 37° C.
[2] = system: Staphylococcus aureus ATCC 6538; conditions: 48 hours at 37° C.
[3] = system: Methicillin Resistant Staphylococcus Wild Strain; conditions: 48 hours at 37° C.
[4] = system: Escherichia coli ATCC 8739; conditions: 48 hours at 37° C.
[5] = system: Streptococcus pyogenes University of Melbourne MDU; conditions: 48 hours at 37° C.
Morazella Catarrhalis = conditions: 48 hours at 37° C.
[6] = dilution 1:100 in Tryptone Soya broth
[7] = dilution 1:200 in Tryptone Soya broth
[8] = dilution 1:400 in Tryptone Soya broth
[9] = dilution 1:800 in Tryptone Soya broth
[10] = dilution 1:1600 in Tryptone Soya broth
[11] = dilution 1:3200 in Tryptone Soya broth
[12] = dilution 1:6400 in Tryptone Soya broth
[13] = dilution 1:12800 in Tryptone Soya broth
[14] = dilution 1:25600 in Tryptone Soya broth
[15] = dilution 1:51200 in Tryptone Soya broth
[16] = dilution 1:102400 in Tryptone Soya broth

CC1=CCC(O)(C(C)C)CC1 (stereo not drawn) [terpinen-4-ol]
reduction in the survival of P. aeruginosa (Pseudomonas aeruginosa): 1 log10

CC/C=C\C/C=C\C/C=C\CCCCCCCC(=O)O [α-linolenic acid]
Growth (turbidity) at Dilution 1:100 [1, 6]: −
Growth (turbidity) at Dilution 1:200 [1, 7]: −
Growth (turbidity) at Dilution 1:400 [1, 8]: +
Growth (turbidity) at Dilution 1:800 [1, 9]: +
Growth (turbidity) at Dilution 1:1600 [1, 10]: +
Growth (turbidity) at Dilution 1:3200 [1, 11]: +
Growth (turbidity) at Dilution 1:6400 [1, 12]: +
Growth (turbidity) at Dilution 1:12800 [1, 13]: +
Growth (turbidity) at Dilution 1:25600 [1, 14]: +
Growth (turbidity) at Dilution 1:51200 [1, 15]: +
Growth (turbidity) at Dilution 1:102400 [1, 16]: +
reduction in the survival of P. aeruginosa (Pseudomonas aeruginosa): 1 log10
Growth (turbidity) at Dilution 1:100 [2, 6]: −
Growth (turbidity) at Dilution 1:200 [2, 7]: −
Growth (turbidity) at Dilution 1:400 [2, 8]: −
Growth (turbidity) at Dilution 1:800 [2, 9]: −
Growth (turbidity) at Dilution 1:1600 [2, 10]: −
Growth (turbidity) at Dilution 1:3200 [2, 11]: −
Growth (turbidity) at Dilution 1:6400 [2, 12]: −
Growth (turbidity) at Dilution 1:12800 [2, 13]: −
Growth (turbidity) at Dilution 1:25600 [2, 14]: −
Growth (turbidity) at Dilution 1:102400 [2, 16]: +
Growth (turbidity) at Dilution 1:100 [3, 6]: −
Growth (turbidity) at Dilution 1:200 [3, 7]: −
Growth (turbidity) at Dilution 1:400 [3, 8]: −
Growth (turbidity) at Dilution 1:800 [3, 9]: −
Growth (turbidity) at Dilution 1:1600 [3, 10]: −
Growth (turbidity) at Dilution 1:3200 [3, 11]: −
Growth (turbidity) at Dilution 1:6400 [3, 12]: −
Growth (turbidity) at Dilution 1:12800 [3, 13]: −
Growth (turbidity) at Dilution 1:25600 [3, 14]: −
Growth (turbidity) at Dilution 1:51200 [3, 15]: −
Growth (turbidity) at Dilution 1:102400 [3, 16]: +
Growth (turbidity) at Dilution 1:100 [4, 6]: +
Growth (turbidity) at Dilution 1:200 [4, 7]: +
Growth (turbidity) at Dilution 1:400 [4, 8]: +
Growth (turbidity) at Dilution 1:800 [4, 9]: +
Growth (turbidity) at Dilution 1:1600 [4, 10]: +
Growth (turbidity) at Dilution 1:3200 [4, 11]: +
Growth (turbidity) at Dilution 1:6400 [4, 12]: +
Growth (turbidity) at Dilution 1:12800 [4, 13]: +
Growth (turbidity) at Dilution 1:25600 [4, 14]: +
Growth (turbidity) at Dilution 1:51200 [4, 15]: +
Growth (turbidity) at Dilution 1:102400 [4, 16]: +
Growth (turbidity) at Dilution 1:100 [5, 6]: −
Growth (turbidity) at Dilution 1:200 [5, 7]: −
Growth (turbidity) at Dilution 1:400 [5, 8]: −
Growth (turbidity) at Dilution 1:800 [5, 9]: −
Growth (turbidity) at Dilution 1:1600 [5, 10]: −
Growth (turbidity) at Dilution 1:3200 [5, 11]: −
Growth (turbidity) at Dilution 1:6400 [5, 12]: −
Growth (turbidity) at Dilution 1:12800 [5, 13]: −
Growth (turbidity) at Dilution 1:51200 [5, 15]: +
Growth (turbidity) at Dilution 1:102400 [5, 16]: +
Growth (turbidity) at Dilution 1:100 (Morazella Catarrhalis; [6]): −
Growth (turbidity) at Dilution 1:200 (Morazella Catarrhalis; [7]): −
Growth (turbidity) at Dilution 1:400 (Morazella Catarrhalis; [8]): −
Growth (turbidity) at Dilution 1:800 (Morazella Catarrhalis; [9]): −
Growth (turbidity) at Dilution 1:1600 (Morazella Catarrhalis; [10]): −
Growth (turbidity) at Dilution 1:3200 (Morazella Catarrhalis; [11]): −
Growth (turbidity) at Dilution 1:6400 (Morazella Catarrhalis; [12]): −
Growth (turbidity) at Dilution 1:12800 (Morazella Catarrhalis; [13]): +
Growth (turbidity) at Dilution 1:25600 (Morazella Catarrhalis; [14]): +
Growth (turbidity) at Dilution 1:51200 (Morazella Catarrhalis; [15]): +
Growth (turbidity) at Dilution 1:102400 (Morazella Catarrhalis; [16]): +
